Results on 3 molecules are retold here after article PMC6942202 (Bioorganic & medicinal chemistry letters, 2019).

The target of experiment [1] is T1, NgGCYH-IB (Neisseria gonorrhoeae, UniProt Q5F9K6). The experiment is described as follows: Inhibition of NgGCYH-IB enzyme activity. Particulars: in words. The experiment is classed as biochemical, N. gonorrhoeae.
For another experiment, the target named is T2, HsGCYH-IA (Homo sapiens, UniProt P30793).
T2 sequence (P30793 43-250 limits assumed): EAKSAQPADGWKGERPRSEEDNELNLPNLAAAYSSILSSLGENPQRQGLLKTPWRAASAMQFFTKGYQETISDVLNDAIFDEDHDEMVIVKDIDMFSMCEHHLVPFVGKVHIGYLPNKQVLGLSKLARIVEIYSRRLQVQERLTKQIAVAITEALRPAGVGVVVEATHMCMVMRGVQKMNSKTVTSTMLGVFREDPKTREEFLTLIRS
Description: Steady-state kinetic analysis of HsGCYH-IA. In kind it is biochemical, H. sapiens. Particulars: read-out: KM of HsGCYH-IA for GTP; fluorescence assay, GTP as substrate.

In experiment [2] the target is T1, NgGCYH-IB. Particulars: read-out: KM of NgGCYH-IB for GTP; cited from earlier work.

SMILES strings stand for the structures.

T1 sequence (Q5F9K6 whole entry): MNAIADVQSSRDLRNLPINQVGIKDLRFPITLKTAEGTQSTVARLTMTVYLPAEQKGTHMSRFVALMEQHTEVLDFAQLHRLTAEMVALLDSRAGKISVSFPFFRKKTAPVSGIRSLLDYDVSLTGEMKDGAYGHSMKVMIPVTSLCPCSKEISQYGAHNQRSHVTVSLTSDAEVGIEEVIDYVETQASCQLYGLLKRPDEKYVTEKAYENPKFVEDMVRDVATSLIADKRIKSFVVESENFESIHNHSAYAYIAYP

Turning to `Nc1nc(OCCO)c2[nH]c(=O)n([C@@H]3O[C@H](CO)[C@@H](O)[C@H]3O)c2n1` [G1], the “Selectivity between HsGCYH-IA and NgGCYH-IB from IC50 values” on NgGCYH-IB [1] was “modest selectivity for HsGCYH-IA”.
In the case of `Nc1nc(OC[C@H](O)CO)c2[nH]c(=O)n([C@@H]3O[C@H](CO)[C@@H](O)[C@H]3O)c2n1` [G3], the “Selectivity between HsGCYH-IA and NgGCYH-IB from IC50 values” at NgGCYH-IB [1] is on record as “three-fold more potent against NgGCYH-IB”.
On to `Nc1nc2c(ncn2[C@@H]2O[C@H](COP(=O)(O)OP(=O)(O)OP(=O)(O)O)[C@@H](O)[C@H]2O)c(=O)[nH]1` [GTP], for which the values for the Km on HsGCYH-IA and on NgGCYH-IB [2] were 867 ± 57 µM and 9 µM, respectively.
